Data set [1] can be described thus: Bioavailability in rat (dose 30 mg/kg i.p.). It is filed as ADME, organism-based. To be noted: in vivo, ip.
Data set [2] in a line: The clearance was measured in dog at dose 5 mg/kg after intravenous administration. The format is ADME, organism-based, Canis lupus familiaris. Further details: dose 5 mg/kg, route intravenous. To be noted: in vivo.
Data set [3] in a line: The clearance was measured in rat at dose 12 mg/kg after intravenous administration. The format is ADME, organism-based. Further details: dose 12 mg/kg, route intravenous. To be noted: in vivo.
A short description of data set [4]: The half life period was measured in dog at dose 5 mg/kg after intravenous administration. As to conditions: in vivo. Further details: dose 5 mg/kg, route intravenous. It is filed as ADME, organism-based, Canis lupus familiaris.
Data set [5] can be described thus: The Tmax is the time taken to reach maximum concentration was measured in rat at dose 30 mg/kg after peroral administration. To be noted: in vivo, po. Also on record: dose 30 mg/kg, route oral. The format is ADME, organism-based.
The nature of data set [6]: The Tmax is the time taken to reach maximum concentration was measured in rat at dose 30 mg/kg after intraperitoneal administration. It is filed as ADME, organism-based. Further details: dose 30 mg/kg, route intraperitoneal. To be noted: in vivo, ip.
Data set [7] is described as follows: The half life period was measured in rat at dose 12 mg/kg after intravenous administration. It is filed as ADME, organism-based. Also on record: dose 12 mg/kg, route intravenous. To be noted: in vivo.
Data set [8] is described as follows: The maximum concentration of the compound was measured in rat at dose 1 mg/kg after peroral administration. Also on record: dose 1 mg/kg, route oral. To be noted: in vivo, po. It is filed as ADME, organism-based.
The nature of data set [9]: The Tmax is the time taken to reach maximum concentration was measured in rat at dose 1 mg/kg after peroral administration. Also on record: dose 1 mg/kg, route oral. The format is ADME, organism-based. To be noted: in vivo, po.
A short description of data set [10]: The maximum concentration of the compound was measured in rat at dose 30 mg/kg after intraperitoneal administration. It is filed as ADME, organism-based. Further details: dose 30 mg/kg, route intraperitoneal. To be noted: in vivo, ip.
Data set [11] in a line: The maximum concentration of the compound was measured in rat at dose 30 mg/kg after peroral administration. To be noted: in vivo, po. Also on record: dose 30 mg/kg, route oral. The format is ADME, organism-based.
Data set [12] addresses T1, Corticotropin-releasing factor receptor 1 (Homo sapiens, UniProt P34998).
T1 sequence (P34998 whole entry): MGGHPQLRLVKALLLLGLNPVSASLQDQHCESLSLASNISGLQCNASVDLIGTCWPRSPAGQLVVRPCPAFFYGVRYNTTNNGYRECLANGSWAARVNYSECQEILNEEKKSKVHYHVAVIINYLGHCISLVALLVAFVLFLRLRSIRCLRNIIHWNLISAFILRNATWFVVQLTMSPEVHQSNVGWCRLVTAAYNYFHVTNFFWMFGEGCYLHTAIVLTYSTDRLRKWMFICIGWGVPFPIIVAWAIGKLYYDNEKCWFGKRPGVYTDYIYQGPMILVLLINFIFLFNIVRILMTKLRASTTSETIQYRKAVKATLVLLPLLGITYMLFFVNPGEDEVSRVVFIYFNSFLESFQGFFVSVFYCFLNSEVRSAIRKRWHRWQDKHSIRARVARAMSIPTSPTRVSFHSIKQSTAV
As to the kind of experiment: Binding affinity for human recombinant corticotropin releasing factor receptor 1.

Data set [13] can be described thus: The maximum concentration of the compound was measured in dog at dose 5 mg/kg after peroral administration. It is filed as ADME, organism-based, Canis lupus familiaris. Further details: dose 5 mg/kg, route oral. As to conditions: in vivo, po.
Data set [14] can be described thus: The bioavailability measured as F(%) in dog at dose 5 mg/kg after peroral administration. The format is ADME, organism-based, Canis lupus familiaris. As to conditions: in vivo, po.
A short description of data set [15]: The Tmax is the time taken to reach maximum concentration was measured in dog at dose 5 mg/kg after peroral administration. It is filed as ADME, organism-based, Canis lupus familiaris. Also on record: dose 5 mg/kg, route oral. To be noted: in vivo, po.
The nature of data set [16]: The clearance was measured in rat at dose 1 mg/kg after intravenous administration. Further details: dose 1 mg/kg, route intravenous. As to conditions: in vivo. It is filed as ADME, organism-based.
A short description of data set [17]: The half life period was measured in rat at dose 1 mg/kg after intravenous administration. It is filed as ADME, organism-based. Further details: dose 1 mg/kg, route intravenous. As to conditions: in vivo.

SMILES strings stand for the structures. pKi: −log10 of the molar value.

The bioavailability is the share of a dose that reaches the circulation, judged against a reference dose that is usually intravenous. Read a high bioavailability as good availability. One may read the clearance as a measure of how efficiently the substance is removed, as volume per time. A higher clearance goes with a high capacity for elimination. A word on the half-life: it is the time in which the quantity being followed falls by half. A high value points to slow decline. As usually defined, the Tmax is the time from dosing to the highest level. One may read the Cmax as the maximum level reached in the sampled fluid or tissue. What is called pKi is the Ki on a negative log10 scale, so that one unit is a factor of ten. For `CCN(c1nc(C)nc(N2CCOCC2)n1)c1c(Br)cc(OC)cc1OC`, the bioavailability in [1] came to 47%; in data set [14] it was 20%. For the same compound, the clearance is 21.7 mL/min/kg in data set [2], 48.3 mL/min/kg in [3] and 66.7 mL/min/kg in [16]. In addition, the half-life in data set [4] is 6 h; in [7] it was 15.6 h; in data set [17] it was 7.6 h. For the same compound, the Tmax in [5] was 1.6 h; in data set [6], 0.3 h; in data set [9], 0.3 h; in data set [15] it was 0.5 h. Moreover, the Cmax in [8] was 21 nM; in data set [10] it was 2700 nM; in [11], 753 nM; in data set [13], 730 nM. Moreover, in [12], the pKi is 7.49.

Source of the values: ChEMBL document CHEMBL1132596, “Non-peptide corticotropin-releasing hormone antagonists: syntheses and structure-activity relationships of 2-anilinopyrimidines and -triazines” (J Med Chem, 1999).
